# According to ChEMBL document CHEMBL4196079, “Molecular interaction of novel benzothiazolyl triazolium analogues with calf thymus DNA and HSA-their biological investigation as potent antimicrobial agents” (Eur J Med Chem, 2018):
# How the values were obtained:
# Salmonella typhi = assay: Antibacterial activity against Salmonella typhi after 24 hrs by NCCLS micro broth dilution method; type: functional, Salmonella enterica subsp. enterica serovar Typhi; conditions: Salmonella enterica
# Saccharomyces cerevisiae = assay: Antifungal activity against Saccharomyces cerevisiae after 24 hrs by NCCLS micro broth dilution method; type: functional
# Escherichia coli [1] = assay: Antibacterial activity against Escherichia coli DH52 after 24 hrs by NCCLS micro broth dilution method; type: functional; conditions: DH52, 24 h
# Staphylococcus aureus [2] = assay: Antibacterial activity against methicillin-resistant Staphylococcus aureus N315 after 24 hrs by NCCLS micro broth dilution method; type: functional; conditions: N315, 24 h
# Pichia norvegensis = assay: Antifungal activity against Candida mycoderma after 24 hrs by NCCLS micro broth dilution method; type: functional
# Cyberlindnera jadinii = assay: Antifungal activity against Candida utilis after 24 hrs by NCCLS micro broth dilution method; type: functional; conditions: Williopsis jadinii
# Bacillus subtilis = assay: Antibacterial activity against Bacillus subtilis ATCC 21216 after 24 hrs by NCCLS micro broth dilution method; type: functional; conditions: ATCC 21216, 24 h
# Aspergillus flavus = assay: Antifungal activity against Aspergillus flavus after 24 hrs by NCCLS micro broth dilution method; type: functional
# Micrococcus luteus = assay: Antibacterial activity against Micrococcus luteus ATCC 4698 after 24 hrs by micro broth dilution method; type: functional; conditions: ATCC 4698, 24 h
# Bacillus = assay: Antibacterial activity against Bacillus proteus ATCC 13315 after 24 hrs by NCCLS micro broth dilution method; type: functional; conditions: ATCC 13315, 24 h
# Staphylococcus aureus [3] = assay: Antibacterial activity against Staphylococcus aureus ATCC 25923 after 24 hrs by NCCLS micro broth dilution method; type: functional; conditions: ATCC 25923, 24 h
# Candida albicans = assay: Antifungal activity against Candida albicans ATCC 76615 after 24 hrs by NCCLS micro broth dilution method; type: functional; conditions: ATCC 76615, 24 h
# Escherichia coli [4] = assay: Antibacterial activity against Escherichia coli JM109 after 24 hrs by NCCLS micro broth dilution method; type: functional; conditions: JM109, 24 h
# Pseudomonas aeruginosa = assay: Antibacterial activity against Pseudomonas aeruginosa ATCC 27853 after 24 hrs by NCCLS micro broth dilution method; type: functional; conditions: ATCC 27853, 24 h
# Shigella dysenteriae = assay: Antibacterial activity against Shigella dysenteriae after 24 hrs by NCCLS micro broth dilution method; type: functional
SMILES,MIC (Salmonella typhi) [mg/L],MIC (Saccharomyces cerevisiae) [mg/L],MIC (Escherichia coli [1]) [mg/L],MIC (Staphylococcus aureus [2]) [mg/L],MIC (Pichia norvegensis) [mg/L],MIC (Cyberlindnera jadinii) [mg/L],MIC (Bacillus subtilis) [mg/L],MIC (Aspergillus flavus) [mg/L],MIC (Micrococcus luteus) [mg/L],MIC (Bacillus) [mg/L],MIC (Staphylococcus aureus [3]) [mg/L],MIC (Candida albicans) [mg/L],MIC (Escherichia coli [4]) [mg/L],MIC (Pseudomonas aeruginosa) [mg/L],MIC (Shigella dysenteriae) [mg/L]
O=[N+]([O-])c1ccc(Cn2cc(COCc3c(-c4ccccc4)nc4sc5ccccc5n34)nn2)cc1,8,32,16,32,32,32,64,256,64,32,32,32,4,64,32
CCOc1ccc2c(c1)sc1nc(-c3ccccc3)c(COCc3cn(Cc4ccc(Cl)cc4)nn3)n12,64,64,64,64,16,64,64,128,32,64,64,32,64,32,64
Clc1ccc(Cn2cc(COCc3c(-c4ccccc4)nc4sc5ccccc5n34)nn2)cc1,64,16,64,64,32,64,128,256,64,64,64,32,128,128,128
CCOc1ccc2c(c1)sc1nc(-c3ccccc3)c(COCc3cn(Cc4cccc(Cl)c4)nn3)n12,16,64,64,128,32,32,64,128,128,512,128,32,128,64,64
Clc1ccccc1Cn1cc(COCc2c(-c3ccccc3)nc3sc4ccccc4n23)nn1,64,64,128,64,8,64,128,128,128,64,64,16,8,128,64
CCOc1ccc2c(c1)sc1nc(-c3ccccc3)c(COCc3cn(Cc4ccc(F)cc4)nn3)n12,32,32,32,128,8,16,64,64,128,64,128,8,64,64,16
CCn1cc(C(=O)O)c(=O)c2cc(F)c(N3CCNCC3)cc21 [NORFLOXACIN],4,,1,8,,,4,,2,8,2,,1,16,16
Clc1ccc(Cn2cc(COCc3c(-c4ccccc4)nc4sc5ccccc5n34)nn2)c(Cl)c1,64,64,16,32,32,32,64,256,32,32,64,32,64,8,64
CCOc1ccc2c(c1)sc1nc(-c3ccccc3)c(COCc3cn(Cc4ccc([N+](=O)[O-])cc4)nn3)n12,4,16,128,128,8,4,256,128,512,32,128,32,2,128,128
CCCCCCCn1cc(COCc2c(-c3ccccc3)nc3sc4ccccc4n23)nn1,64,32,64,128,32,16,128,256,128,64,128,32,128,64,128
CCOc1ccc2c(c1)sc1nc(-c3ccccc3)c(COCc3cn(Cc4ccc(Cl)cc4Cl)nn3)n12,64,32,64,64,4,8,32,64,64,16,64,1,64,32,32
Clc1ccc(Cn2cc(COCc3c(-c4ccccc4)nc4sc5ccccc5n34)nn2)cc1Cl,64,64,64,16,32,64,16,256,32,8,64,32,64,16,32
CCCCCn1cc(COCc2c(-c3ccccc3)nc3sc4ccccc4n23)nn1,4,32,32,8,16,8,64,256,128,64,64,32,64,128,4
Fc1ccc(Cn2cc(COCc3c(-c4ccccc4)nc4sc5ccccc5n34)nn2)cc1,128,64,128,64,32,16,128,256,128,128,128,32,128,128,128
CCCCCCCn1cc(COCc2c(-c3ccccc3)nc3sc4cc(OCC)ccc4n23)nn1,128,64,128,64,32,64,128,128,128,128,128,32,64,128,128
CCOc1ccc2c(c1)sc1nc(-c3ccccc3)c(COCc3cn(Cc4ccccc4Cl)nn3)n12,16,64,128,128,32,32,128,128,128,512,64,8,128,64,128
OC(Cn1cncn1)(Cn1cncn1)c1ccc(F)cc1F [FLUCONAZOLE],,16,,,4,8,,256,,,,1,,,
